Experimental data reported in patent EP4741380A1, “ISOXAZOLINE COMPOUND AND USE” (priority 2024, dated 2025).
Like-named read-outs stand apart in the source and are kept apart here.

How the values were obtained:
[1] = tested on: Diamondback moth; assay: Killing efficacy test against agricultural pests: diamondback moth test (leaf dip); format: in vivo; details: Plutella xylostella, foliar, read-out: Corrected Mortality Rate (%)
Procedure: (§1) Solution preparation: 2 mg of a test compound was weighed and dissolved in 200 µL of acetone, and the sample was diluted with an aqueous solution containing 0.1% Tween 80 to a required concentration to obtain a test solution. 1. Diamondback moth test: The test sample was prepared into solutions with final concentrations of 0.0156 mg/L, 0.125 mg/L, and 1 mg/L. Fresh and clean rapeseed leaves were cut into small pieces of 3 cm × 3 cm. The leaf pieces were immersed in the solutions with different concentrations for 10s, taken out, and air-dried naturally. The treated leaf pieces were placed into Petri dishes lined with moistened filter paper. 20 third-instar larvae of the diamondback moth were introduced into each Petri dish. The Petri dishes were placed in a constant-temperature room, and mortality rates were checked after 72 h. 2. Aphid test: The test sample was prepared into solutions with final concentrations of 2 mg/L, 10 mg/L, and 50 mg/L. Fresh cotton leaves of uniform size were immersed in the solutions with different concentrations for 10s, air-dried, and placed backside up on culture plates. 100 wingless adult aphids were introduced into each culture plate. The culture plates were sealed with paper strips and placed in a constant-temperature room. Mortality rates were checked after 72 h. 3. Mite test: The test sample was prepared into solutions with final concentrations of 0.02 mg/L, 0.2 mg/L, and 2 mg/L. Filter paper treated with the test solutions was placed in Petri dishes, and about 30 mites were placed at the center of each Petri dish. 0.05 g of mite feed was added to the center of each Petri dish after 30 min. The Petri dishes were placed in a constant-temperature room, and mortality rates were checked after 72 h. 4. Borer test: The test sample was prepared into solutions with final concentrations of 0.125 mg/L, 0.5 mg/L, and 2 mg/L. Fresh leaves were cut, immersed in the solutions with different concentrations for 10s, taken out, and air-dried. The treated leaves were placed in Petri dishes, and 30 borer larvae were introduced into each Petri dish. The Petri dishes were placed in a constant-temperature room, and mortality rates were checked after 72 h.

[2] = tested on: Borer; assay: Killing efficacy test against agricultural pests: borer test (leaf dip); format: in vivo; details: after 72 h
Procedure: as §1

[3] = tested on: mites; assay: Mite killing efficacy test with an in vitro model
Procedure: Mite collection: Live mites were gently picked up from a cage box with cotton swabs or small tweezers, 17-26 live mites per group.
Drug treatment and detection method: 100 µL of a drug solution with a different concentration (drug solution prepared by 3% DMSO solution + 97% water and having a target final concentration of 30 µM) was aspirated with a pipette and added to a 24-well plate for each group, ensuring full contact between the drug and the mites. The mites were separately incubated at normal temperature for 5 min, transferred from each plate to another dry 24-well plate with the top sealed, and air-dried for about 1 h. Mite actions were observed, and the number of dead mites/the total number of mites was recorded. Then, the 24-well plate containing the mites was cultured at room temperature and relatively high humidity. The number of dead mites/the total number of mites was counted separately after 1 h, 2 h, 4 h, 6 h, 8 h, 22 h, and 24 h (time points after drug addition), and mite mortality rates were calculated. The project ended 24 h after drug addition.
At a corresponding time point, a mite mortality rate greater than or equal to 90% is denoted as "+++", a mite mortality rate less than 90% and greater than or equal to 50% is denoted as "++", and a mite mortality rate less than 50% is denoted as "+".

[4] = tested on: Mite; assay: Killing efficacy test against agricultural pests: mite test (treated filter paper); format: in vivo, mites; details: after 72 h
Procedure: as §1

[5] = In vivo pharmacokinetic evaluation in mice; parameters: species or system ICR mice; details: for AUC: read-out: AUC^1-24 h; for Vd: in vivo, read-out: Vss
Procedure: 1. Drug preparation: 5% DMSO + 10% macrogol 15 hydroxystearate (BASF) + 85% saline (where drug solutions have a final concentration of 1.2 mg/mL for the IV group and 3 mg/mL for the PO group). 2. Experimental animals: Each group included three mice (ICR mice, SPF grade). 3. Administration method: The body weight was measured before administration, and the dose was calculated according to the body weight. The mice were administered through intravenous injection or oral gavage. 4. Blood collection: After administration, blood samples were collected in 0.083 h, 0.25 h, 0.5 h, 1 h, 2 h, 4 h, 6 h, 8 h, and 24 h. The blood samples were collected via the cheek. Each sample included about 0.05 mL of blood anticoagulated with EDTA-2K. The blood samples were placed on wet ice after collection. 5. Sample treatment: The blood samples were placed on ice after collection and centrifuged within 1 h to obtain plasma (centrifugation conditions: 6000 g, 3 min, 2-8°C). Plasma samples were stored in a -80°C refrigerator before analysis. 6. Data processing: Pharmacokinetic parameters were calculated using Phoenix WinNonlin 8.2.0 based on plasma concentration data at different time points.

[6] = tested on: Aphid; assay: Killing efficacy test against agricultural pests: aphid test (leaf dip); format: in vivo, aphids; details: after 72 h
Procedure: as §1

[7] = 4 h, read-out: Mite Mortality Rate 4 h
[8] = 24 h, read-out: Mite Mortality Rate 24 h
[9] = ICR, mouse, IV (6 mg/kg), plasma
[10] = ICR, mouse, IV (6 mg/kg), plasma, read-out: C0
[11] = ICR, mouse, PO (30 mg/kg), plasma
[12] = ICR, mouse, PO (30 mg/kg), plasma, read-out: Cmax
[13] = ICR, mouse, PO (30 mg/kg), plasma, read-out: Tmax
[14] = ICR, mouse, plasma, PO (30 mg/kg) vs IV (6 mg/kg)
[15] = DiamondBack Moth, 0.0156 mg/L, after 72 h
[16] = DiamondBack Moth, 0.125 mg/L, after 72 h
[17] = DiamondBack Moth, 1 mg/L, after 72 h
[18] = 30 µM drug solution, 4 h after drug addition, read-out: Mite Mortality Rate 4 h
[19] = 30 µM drug solution, 24 h after drug addition, read-out: Mite Mortality Rate 24 h

Compound	Corrected Mortality Rate (%) ([2]; 0.125 mg/L)	Corrected Mortality Rate (%) ([2]; 0.5 mg/L)	Corrected Mortality Rate (%) ([2]; 2 mg/L)	mortality at 30 µM [3, 7]	mortality at 30 µM [3, 8]	Corrected Mortality Rate (%) ([4]; 0.02 mg/L)	Corrected Mortality Rate (%) ([4]; 0.2 mg/L)	Corrected Mortality Rate (%) ([4]; 2 mg/L)	clearance [5, 9]	half-life [5, 9]	AUC [5, 9]	C0 [5, 10]	half-life [5, 11]	AUC [5, 11]	Cmax [5, 12]	Tmax [5, 13]	Vd [5, 9]	Corrected Mortality Rate (%) ([6]; 2 mg/L)	Corrected Mortality Rate (%) ([6]; 10 mg/L)	Corrected Mortality Rate (%) ([6]; 50 mg/L)	further results
Cc1cc(C2=NO[C@@](c3cc(Cl)cc(C(F)(F)F)c3)(C(F)(F)F)C2)ccc1C(=O)NCC(=O)NC1(C(F)(F)F)CC1 [Example 008, (S)-4-(5-(3-chloro-5-(trifluoromethyl)phenyl)-5-(trifluoromethyl)-4,5-dihydroisoxazol-3-yl)-2-m ethyl-N-(2-oxo-2-((1-(trifluoromethyl)cyclopropyl)amino)ethyl)benzamide]	2%	82%	100%	> 90%	> 90%	62%	92%	100%	0.713 mL/min/kg	37.6 h	56100 ng·h/mL	10300 ng/mL	31.6 h	233000 ng·h/mL	15300 ng/mL	9.33 h	1.93 L/kg	86%	100%	100%	mortality at 0.0156 µg/mL ([1]; 72 h): 5%; mortality at 0.125 µg/mL ([1]; 72 h): 100%; mortality at 1 µg/mL ([1]; 72 h): 100%; bioavailability [5, 14]: 83.1%
Cc1cc(C2=NO[C@@](c3cc(Cl)cc(Cl)c3)(C(F)(F)F)C2)ccc1C(=O)NCC(=O)NC1(C(F)(F)F)CC1 [Example 011, (S)-4-(5-(3,5-dichlorophenyl)-5-(trifluoromethyl)-4,5-dihydroisoxazol-3-yl)-2-methyl-N-(2-oxo-2-((1-(trifluoromethyl)cyclopropyl)amino)ethyl)benzamide]	29%	93%	100%	> 90%	> 90%	34%	86%	100%	1.18 mL/min/kg	20 h	48900 ng·h/mL	6800 ng/mL	27.8 h	231000 ng·h/mL	15900 ng/mL	2.67 h	1.96 L/kg	60%	100%	100%	mortality at 0.0156 µg/mL ([1]; 72 h): 0%; mortality at 0.125 µg/mL ([1]; 72 h): 100%; mortality at 1 µg/mL ([1]; 72 h): 100%; bioavailability [5, 14]: 94.6%
Cc1cc(C2=NOC(c3cc(Cl)c(Cl)c(C(F)(F)F)c3)(C(F)(F)F)C2)ccc1C(=O)NCC(=O)NC1(C(F)(F)F)CC1 (stereo not shown) [Example 029, 4-(5-(3,4-dichloro-5-(trifluoromethyl)phenyl)-5-(trifluoromethyl)-4,5-dihydroisoxazol-3-yl)-2-m ethyl-N-(2-oxo-2-((1-(trifluoromethyl)cyclopropyl)amino)ethyl)benzamide]	0%	50%	100%	–	–	54%	70%	100%	–	–	–	–	–	–	–	–	–	5%	100%	100%	mortality at 0.0156 µg/mL [1, 15]: 0%; mortality at 0.125 µg/mL [1, 16]: 79%; mortality at 1 µg/mL [1, 17]: 100%; mortality at 30 µM [3, 18]: > 90%; mortality at 30 µM [3, 19]: > 90%
Cc1cc(C2=NOC(c3cc(C(F)(F)F)cc(C(F)(F)F)c3)(C(F)(F)F)C2)ccc1C(=O)NCC(=O)NC1(C(F)(F)F)CC1 (stereo not shown) [Example 030, 4-(5-(3,5-bis(trifluoromethyl)phenyl)-5-(trifluoromethyl)-4,5-dihydroisoxazol-3-yl)-2-methyl-N-(2-oxo-2-((1-(trifluoromethyl)cyclopropyl)amino)ethyl)benzamide]	30%	100%	100%	–	–	34%	66%	96%	–	–	–	–	–	–	–	–	–	22%	86%	100%	mortality at 0.0156 µg/mL [1, 15]: 16%; mortality at 0.125 µg/mL [1, 16]: 63%; mortality at 1 µg/mL [1, 17]: 100%; mortality at 30 µM [3, 18]: > 90%; mortality at 30 µM [3, 19]: > 90%
Cc1cc(C2=NOC(c3cc(Cl)cc(Cl)c3)(C(F)(F)F)C2)ccc1C(=O)NCC(=O)NC1CC1 (stereo not shown) [Example 39 (Comparative Example 1), N-(2-(cyclopropylamino)-2-oxoethyl)-4-(5-(3,5-dichlorophenyl)-5-(trifluoromethyl)-4,5-dihydroisoxazol-3-yl)-2-methylbenzamide, reference compound]	–	–	–	> 90%	> 90%	–	–	–	2.06 mL/min/kg	12.3 h	37100 ng·h/mL	7800 ng/mL	11.8 h	173000 ng·h/mL	12300 ng/mL	3.33 h	1.97 L/kg	–	–	–	bioavailability [5, 14]: 93.1%
Cc1cc(C2=NOC(c3cc(Cl)cc(Cl)c3)(C(F)(F)F)C2)ccc1C(=O)NCC(=O)NCC(F)(F)F (stereo not shown) [Fluralaner, fluralaner, reference compound]	–	–	–	–	–	–	–	–	–	–	–	–	–	–	–	–	–	–	–	–	Mite Mortality Rate 4 h ([3]; 30 µM drug solution, 4 h after drug addition): +++ (a mite mortality rate greater than or equal to 90% is denoted as "+++"); Mite Mortality Rate 24 h ([3]; 30 µM drug solution, 24 h after drug addition): +++ (a mite mortality rate greater than or equal to 90% is denoted as "+++"); AUC^1-24 h ([5]; IV (6 mg/kg), plasma): 22972 ng·h/mL; C0 ([5]; IV (6 mg/kg), plasma): 7151 ng/mL; CL ([5]; IV (6 mg/kg), plasma): 3.49 mL/min/kg; T1/2 ([5]; IV (6 mg/kg), plasma): 11.9 h; Vss ([5]; IV (6 mg/kg), plasma): 2.87 L/kg; F (%) ([5]; PO (30 mg/kg) vs IV (6 mg/kg)): 81.42%; AUC^1-24 h ([5]; PO (30 mg/kg), plasma): 93520 ng·h/mL; Cmax ([5]; PO (30 mg/kg), plasma): 8000 ng/mL; T1/2 ([5]; PO (30 mg/kg), plasma): 15.2 h; Tmax ([5]; PO (30 mg/kg), plasma): 1.67 h
